Values quoted from earlier work as cited in patent US20250179582A1, “METHODS FOR TREATING CANCER PATIENTS WITH HOMOLOGOUS RECOMBINATION DEFICIENCY BASED ON TEMPLATED INSERTIONS” (Memorial Sloan-Kettering Cancer Center, priority 2022, published 2025).
Where two headings read alike, the source gives them in different places.

Tested on: relapsed high-grade serous ovarian/endometrioid/primary peritoneal/or fallopian carcinoma
Settings: rucaparib versus placebo

SMILES: CNCc1ccc(-c2[nH]c3cc(F)cc4c3c2CCNC4=O)cc1 [rucaparib]
- progression-free survival hazard ratio (HR) (germline or somatic mutated BRCA1/2 cohort, patients with at least a partial response to platinum therapy): 0.23
- progression-free survival hazard ratio (HR) (patients with high genomic LOH): 0.44
- progression-free survival hazard ratio (HR) (patients with low genomic LOH): 0.58
